Assay results from patent publication US7951950B2, “PGD2 receptor antagonists for the treatment of inflammatory diseases” (Millennium Pharmaceuticals, Inc., priority 2005, dated 2011).

Target: T1, cloned human CRTH2 receptor (Homo sapiens, UniProt Q9Y5Y4)
T1 construct: purchased Biosignal; host or cells: HEK-293 cells stably expressing human CRTH2 and G alpha 16
T1 sequence (Q9Y5Y4 1-395): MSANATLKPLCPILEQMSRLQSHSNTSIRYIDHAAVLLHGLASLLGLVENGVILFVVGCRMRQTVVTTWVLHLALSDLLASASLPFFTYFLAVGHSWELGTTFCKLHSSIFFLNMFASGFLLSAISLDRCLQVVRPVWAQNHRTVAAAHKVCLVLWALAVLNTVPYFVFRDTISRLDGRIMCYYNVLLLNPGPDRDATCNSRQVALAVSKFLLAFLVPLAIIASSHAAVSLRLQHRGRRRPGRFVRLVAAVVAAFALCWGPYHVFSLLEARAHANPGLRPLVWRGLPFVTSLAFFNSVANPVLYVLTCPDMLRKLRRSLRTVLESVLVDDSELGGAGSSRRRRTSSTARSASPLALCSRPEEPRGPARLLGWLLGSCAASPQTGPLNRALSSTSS
Experiment: radioligand membrane binding assay: inhibition of [3H] PGD2 binding, Scintillation Proximity Assay
Conditions: [3H] PGD2 binding to membranes of HEK-293 cells expressing human CRTH2; SPA
Method: This radioligand membrane binding assay evaluates the ability of compounds to inhibit [^3H] Prostaglandin D2 (PGD2) binding to the cloned human CRTH2 receptor stably expressed in HEK-293 cells (expressing human CRTh2 receptor and α subunit or the heterotrimeric G protein 16 were prepared by Biosignal Company) using Scintillation Proximity Assay.
A binding buffer containing 50 mM Tris-HCl (pH 7.5), 5 mM MgCl2 and 1 mM EDTA is prepared immediately prior to performing the assay. A bead/membrane solution at twice the final assay concentration comprising membranes (membranes bought from Biosignal) from the HEK-293 cells cloned to express CRTH2 receptor bound to and [^3H] PGD2 at two times the final assay concentration are prepared and stored on ice before adding to wells. Cold PGD2 at twenty times the final assay concentration is prepared and stored on ice before adding to wells defining non-specific binding (NSB) coming plates #3653 are used for this assay.
10 mM stock concentrations of compounds in 100% DMSO are prepared and stored at room temperature. A 10 point concentration response curve is then constructed for each compound, starting at 10 μM (final assay concentration). The compounds are prepared at 40 times final assay concentrations with nine consequent-3-fold dilutions.
0.1 μl of each concentration of compound are added to the appropriate well of the 384 plate and 2 μl of cold PGD2 is added into the wells defining NSB. 20 μl of [3H] PGD2 and then 20 μl of 2× of bead/membrane solution are then added to each well.
The plates are allowed to incubate at room temperature for approximately 2 hours and then counted on Packard Topcount using SPA tritium protocol for 1 minute/well.
The percent inhibition of PGD2 binding (PGD2 used at the KD value or lower) to the HEK-293 cell membranes is determined, the assay is always run as duplicate for n=1 for a total of n=2 and shown below.

| SMILES | Ki |
| --- | --- |
| CCN(C(=O)[C@H]1C[C@H](C)N(C(=O)c2ccc(OC)cc2)c2ccccc21)c1ccc(Cl)c(C(F)(F)F)c1 (racemic) [Compound 11, (±)-trans-1-(4-Methoxy-benzoyl)-2-methyl-1,2,3,4-tetrahydro-quinoline-4-carboxylic acid (4-chloro-3-trifluoromethyl-phenyl)-ethyl-amide] | < 10 µM |
| CCN(C(=O)C1CCN(C(=O)c2ccc(OC)cc2)c2ccccc21)c1ccc(Cl)cc1 (racemic) [Compound 33, (±)-1-(4-Methoxy-benzoyl)-1,2,3,4-tetrahydro-quinoline-4-carboxylic acid (4-chloro-phenyl)-ethyl-amide] | < 10 µM |
| CCN(C(=O)[C@H]1C[C@H](C)N(C(=O)c2ccc(OC)cc2)c2ccccc21)c1ccc(C)c(C(F)(F)F)c1 (racemic) [Compound 50, (±)-trans-1-(4-Methoxy-benzoyl)-2-methyl-1,2,3,4-tetrahydro-quinoline-4-carboxylic acid ethyl-(4-methyl-3-trifluoromethyl-phenyl)-amide] | < 10 µM |
| CCN(C(=O)[C@H]1C[C@H](C)N(C(=O)c2ccc(OC)cc2)c2ccccc21)c1ccccc1C (racemic) [Compound 61, (±)-trans-1-(4-Methoxy-benzoyl)-2-methyl-1,2,3,4-tetrahydro-quinoline-4-carboxylic acid ethyl-o-tolyl-amide] | < 10 µM |
| CCN(C(=O)[C@H]1C[C@H](C)N(C(=O)c2ccc(OC)cc2)c2ccccc21)c1cc(C)on1 (racemic) [Compound 35, (±)-trans-1-(4-Methoxy-benzoyl)-2-methyl-1,2,3,4-tetrahydro-quinoline-4-carboxylic acid ethyl-(5-methyl-isoxazol-3-yl)-amide] | < 10 µM |

More lines, now with the values ahead:

| Ki | SMILES |
| --- | --- |
| < 10 µM | CCN(C(=O)[C@H]1C[C@H](C)N(C(=O)c2ccc(OC)cc2)c2ccccc21)c1ccc(C)c(F)c1 (racemic) [Compound 57, (±)-trans-1-(4-Methoxy-benzoyl)-2-methyl-1,2,3,4-tetrahydro-quinoline-4-carboxylic acid ethyl-(3-fluoro-4-methyl-phenyl)-amide] |
| < 10 µM | CCN(C(=O)[C@H]1C[C@@H](C)N(C(=O)c2ccc(OCCC(C)(C)C(=O)O)cc2)c2ccccc21)c1ccc(Cl)cc1 (racemic) [Compound 76, (±)-cis-4-(4-{4-[(4-Chloro-phenyl)-ethyl-carbamoyl]-2-methyl-3,4-dihydro-2H-quinoline-1-carbonyl}-phenoxy)-2,2-dimethyl-butyric acid] |
| < 10 µM | CCN(C(=O)[C@H]1C[C@H](C)N(C(=O)Cc2ccc(OC)cc2)c2ccccc21)c1ccc(Cl)cc1 (racemic) [Compound 2, (±)-trans-1-[2-(4-Methoxy-phenyl)-acetyl]-2-methyl-1,2,3,4-tetrahydro-quinoline-4-carboxylic acid (4-chloro-phenyl)-ethyl-amide] |
| < 10 µM | CCN(C(=O)[C@H]1C[C@H](C)N(C(=O)c2ccc(OC)cc2)c2ccccc21)c1ccc(C(C)C)cc1 (racemic) [Compound 15, (±)-trans-1-(4-Methoxy-benzoyl)-2-methyl-1,2,3,4-tetrahydro-quinoline-4-carboxylic acid ethyl-(4-isopropyl-phenyl)-amide] |
| < 10 µM | CCN(Cc1ccc(Cl)cc1)C(=O)[C@H]1C[C@H](C)N(C(=O)c2ccc(OC)cc2)c2ccccc21 (racemic) [Compound 5, (±)-trans-1-(4-Methoxy-benzoyl)-2-methyl-1,2,3,4-tetrahydro-quinoline-4-carboxylic acid (4-chloro-benzyl)-ethyl-amide] |
